Assay results reported in patent US8071768B2, “Alkylquinoline and alkylquinazoline kinase modulators” (Janssen Pharmaceutica, N.V., priority 2005, dated 2011).

Key:
[1] = tested on: MV4-11 cells; test: Inhibition of MV4-11 cell proliferation (CellTiterGlo); format: cell-based; details: Homo sapiens; 72 hours growth; uncertainty ±20%
Description: Inhibition of MV4-11 and Baf3 Cell Proliferation
To assess the cellular potency of the compounds of the present invention, FLT3 specific growth inhibition was measured in the leukemic cell line MV4-11 (ATCC Number: CRL-9591). MV4-11 cells are derived from a patient with childhood acute myelomonocytic leukemia with an 11q23 translocation resulting in a MLL gene rearrangement and containing an FLT3-ITD mutation (AML subtype M4)(1,2). MV4-11 cells cannot grow and survive without active FLT3ITD.
To measure proliferation inhibition by test compounds, the luciferase based CellTiterGlo reagent (Promega), which quantifies total cell number based on total cellular ATP concentration, was used. […]
Compound dilutions or 0.1% DMSO (vehicle control) are added to cells and the cells are allowed to grow for 72 hours at standard cell growth conditions (37° C., 5% CO2). […] To measure total cell growth an equal volume of CellTiterGlo reagent was added to each well, according to the manufacturer's instructions, and luminescence was quantified. Total cell growth was quantified as the difference in luminescent counts (relative light units, RLU) of cell number at Day 0 compared to total cell number at Day 3 (72 hours of growth and/or compound treatment). One hundred percent inhibition of growth is defined as an RLU equivalent to the Day 0 reading. […]

[2] = biological target: T1, TrkB (Homo sapiens, UniProt Q16620); test: Trk B Fluorescence Polarization Kinase Assay; format: biochemical; details: uncertainty ±10%
T1 construct: purchased Upstate 14-507M
T1 sequence (Q16620 32-822): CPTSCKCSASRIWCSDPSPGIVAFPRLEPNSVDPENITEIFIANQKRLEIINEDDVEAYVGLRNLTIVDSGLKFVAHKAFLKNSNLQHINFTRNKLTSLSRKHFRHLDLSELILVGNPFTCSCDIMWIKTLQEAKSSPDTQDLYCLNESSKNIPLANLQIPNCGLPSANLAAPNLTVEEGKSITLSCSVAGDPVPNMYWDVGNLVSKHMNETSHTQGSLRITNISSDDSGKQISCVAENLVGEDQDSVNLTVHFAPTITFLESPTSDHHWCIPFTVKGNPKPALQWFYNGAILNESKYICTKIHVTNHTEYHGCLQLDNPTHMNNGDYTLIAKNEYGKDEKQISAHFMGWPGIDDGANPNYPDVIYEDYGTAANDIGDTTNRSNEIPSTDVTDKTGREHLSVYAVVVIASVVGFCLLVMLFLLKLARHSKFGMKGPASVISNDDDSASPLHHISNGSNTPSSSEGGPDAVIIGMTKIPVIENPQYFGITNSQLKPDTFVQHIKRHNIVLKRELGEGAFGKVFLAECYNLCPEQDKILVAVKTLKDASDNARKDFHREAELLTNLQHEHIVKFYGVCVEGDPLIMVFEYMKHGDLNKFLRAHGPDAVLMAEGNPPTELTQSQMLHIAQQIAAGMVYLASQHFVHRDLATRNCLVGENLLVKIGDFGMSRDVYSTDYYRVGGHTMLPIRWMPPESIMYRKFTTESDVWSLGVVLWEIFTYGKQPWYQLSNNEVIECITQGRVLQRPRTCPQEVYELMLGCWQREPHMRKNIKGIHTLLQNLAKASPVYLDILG
Outline: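 The TrkB kinase reaction (50 nM enzyme, 20 ug/mL poly Glu4Tyr, 150 uM ATP, 5 mM MgCl2, 1% DMSO) ran 30 minutes at room temperature and was stopped with EDTA. Phosphorylation was detected by fluorescence-polarization displacement of a fluorescein phosphopeptide from an anti-phosphotyrosine antibody. IC50 came from a variable-slope sigmoidal fit of triplicates.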

[3] = biological target: T2, isolated kinase domain of the human c-kit receptor (Homo sapiens, UniProt P10721); test: c-Kit Fluorescence Polarization Kinase Assay; format: biochemical; details: uncertainty ±10%; read-out: ckit IC50
T2 construct: isolated kinase domain of the human c-kit receptor; purchased ProQinase lot SP005
T2 sequence (P10721 589-937 limits assumed): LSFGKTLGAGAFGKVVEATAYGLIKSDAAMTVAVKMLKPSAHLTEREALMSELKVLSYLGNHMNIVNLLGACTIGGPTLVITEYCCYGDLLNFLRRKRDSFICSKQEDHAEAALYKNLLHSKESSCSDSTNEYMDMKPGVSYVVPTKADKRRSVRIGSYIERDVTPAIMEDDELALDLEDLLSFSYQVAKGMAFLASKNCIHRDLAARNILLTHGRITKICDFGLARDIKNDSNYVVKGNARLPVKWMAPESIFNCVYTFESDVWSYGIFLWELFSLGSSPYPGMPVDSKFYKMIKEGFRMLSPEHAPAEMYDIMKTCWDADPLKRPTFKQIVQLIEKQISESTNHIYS
Description: c-Kit Fluorescence Polarization Kinase Assay
The compounds of the present invention are also specific inhibitors of c-Kit. Selection of preferred compounds of Formula I for use as c-Kit inhibitors was performed in the following manner using an in vitro kinase assay to measure inhibition of the isolated kinase domain of the human c-kit receptor in a fluorescence polarization (FP) protocol. The c-kit assay utilized the fluorescein-labeled phosphopeptide and the anti-phosphotyrosine antibody included in the Panvera Phospho-Tyrosine Kinase Kit (Green) supplied by Invitrogen. When c-kit phosphorylated the poly Glu4Tyr, the fluorescein-labeled phosphopeptide was displaced from the anti-phosphotyrosine antibody by the phosphorylated poly Glu4Tyr, thus decreasing the FP value. The c-kit kinase reaction was incubated at room temperature for 45 minutes under the following conditions: 1 nM c-kit (ProQinase, lot SP005), 100 ug/mL poly Glu4Tyr, 50 uM ATP, 5 mM MgCl2, 1 mM DTT, 0.01% Tween-20, 1% DMSO or compound in […], pH 7.5. The kinase reaction was stopped with the addition of EDTA. The fluorescein-labeled phosphopeptide and the anti-phosphotyrosine antibody were added and incubated for 30 minutes at room temperature and fluorescence polarization was read. Data points were an average of triplicate samples. Inhibition and IC50 data analysis were done with GraphPad Prism using a non-linear regression fit with a multiparamater, sigmoidal dose-response (variable slope) equation.

CC(C)Oc1ccc(NC(=O)N2CCC(c3ncnc4cc(OCCCN5CCN(C)CC5)ccc34)CC2)cc1 [Compound 39] showed an IC50 [1] of 14 nM, an IC50 [2] of 600 nM and an IC50 [3] of 14 nM.
